Results reported in paper PMC8026479 (Cancer Chemotherapy and Pharmacology, 2021).
Read-outs that look alike come from different tables or passages of the source.

What was measured:
[1] = Study G1T28-03 Part 1 plasma PK (with topotecan); type: in vivo, human; details: for Cmax / T1/2 / AUC(0-inf) / clearance / Vd / half-life: geometric mean; for Vd: read-out: Vz; for Tmax: range
From the text: G1T28-03 (NCT02514447) was a multicentre Phase Ib/IIa study in patients with previously treated ES-SCLC [14]. […] Part 1 was a Phase Ib, open-label, dose-finding portion. Part 2 was a Phase IIa, randomized, double-blind, placebo-controlled portion. […] In Part 1 of the study, blood samples for PK analysis were collected at prespecified time points on Cycle 1 Day 1 and Cycle 1 Day 4 for all patients.

[2] = test system: chemotherapy-induced myelosuppression in ES-SCLC patients; test: Study G1T28-03 Part 1 DLTs and myelosuppression endpoints (with topotecan); type: in vivo, human
From the text: G1T28-03 (NCT02514447) was a multicentre Phase Ib/IIa study in patients with previously treated ES-SCLC [14]. Patients were aged ≥ 18 years and had histologically or cytologically confirmed ES-SCLC that had progressed during or after prior first- or second-line chemotherapy, measurable disease per RECIST version 1.1, an ECOG performance status of 0–2, and adequate organ function. Part 1 was a Phase Ib, open-label, dose-finding portion. Part 2 was a Phase IIa, randomized, double-blind, placebo-controlled portion. […] In Part 1 of the study, blood samples for PK analysis were collected at prespecified time points on Cycle 1 Day 1 and Cycle 1 Day 4 for all patients.

[3] = ES-SCLC + topotecan, 280 mg/m2, Cycle 1 Day 1 (n = 7)
[4] = human, plasma, 200 mg/m2, ES-SCLC + topotecan, 200 mg/m2, Cycle 1 Day 4 (n = 9)
[5] = human, plasma, 280 mg/m2, ES-SCLC + topotecan, 280 mg/m2, Cycle 1 Day 1 (n = 7)
[6] = human, plasma, 280 mg/m2, ES-SCLC + topotecan, 280 mg/m2, Cycle 1 Day 4 (n = 7)
[7] = human, plasma, ES-SCLC + topotecan, 200 mg/m2, Cycle 1 Day 1 (n = 10)
[8] = human, plasma, ES-SCLC + topotecan, 240 mg/m2, Cycle 1 Day 1 (n = 14)
[9] = human, plasma, ES-SCLC + topotecan, 240 mg/m2, Cycle 1 Day 4 (n = 15)
[10] = G1T28-03 Part 1, 200 mg/m2 + topotecan 0.75 mg/m2 (n = 4)
[11] = G1T28-03 Part 1, 200 mg/m2 + topotecan 1.25 mg/m2 (n = 3)
[12] = G1T28-03 Part 1, 200 mg/m2 + topotecan […]2 (n = 2)

CN1CCN(c2ccc(Nc3ncc4cc5n(c4n3)C3(CCCCC3)CNC5=O)nc2)CC1 [trilaciclib]
Cmax ([1]; ES-SCLC + topotecan, 200 mg/m2, Cycle 1 Day 4 (n = 9)): 1060 ng/mL
T1/2 ([1]; ES-SCLC + topotecan, 240 mg/m2, Cycle 1 Day 1 (n = 14)): 407 min
Cmax [1, 3]: 1110 ng/mL
T1/2 [1, 3]: 443 min
accumulation on repeated daily dosing ([1]; G1T28-03 Part 1, 280 mg/m2, Day 1 vs Day 4, not observed at lower dose levels): resulted in drug accumulation
AUC(0-inf) ([1]; human, plasma, 200 mg/m2, ES-SCLC + topotecan, 200 mg/m2, Cycle 1 Day 1 (n = 10), read-out: AUC0-inf): 2410 ng·h/mL
clearance [1, 4]: 2850 mL/min
Vd [1, 4]: 2120 L
Tmax [1, 4]: 22.8 to 34.8 min
AUC(0-inf) ([1]; human, plasma, 240 mg/m2, ES-SCLC + topotecan, 240 mg/m2, Cycle 1 Day 1 (n = 14), read-out: AUC0-inf): 2910 ng·h/mL
Tmax ([1]; human, plasma, 240 mg/m2, ES-SCLC + topotecan, 240 mg/m2, Cycle 1 Day 1 (n = 14)): 24 to 42 min
AUC(0-inf) ([1]; human, plasma, 240 mg/m2, ES-SCLC + topotecan, 240 mg/m2, Cycle 1 Day 4 (n = 15), read-out: AUCtau (AUC0-inf, footnote a)): 2880 ng·h/mL
Vd ([1]; human, plasma, 240 mg/m2, ES-SCLC + topotecan, 240 mg/m2, Cycle 1 Day 4 (n = 15)): 1730 L
clearance [1, 5]: 2680 mL/min
AUC(0-inf) ([1]; human, plasma, 280 mg/m2, ES-SCLC + topotecan, 280 mg/m2, Cycle 1 Day 1 (n = 7), read-out: AUC0-inf): 3490 ng·h/mL
Vd [1, 5]: 1720 L
Tmax [1, 5]: 25.2 to 37.2 min
clearance [1, 6]: 2080 mL/min
AUC(0-inf) ([1]; human, plasma, 280 mg/m2, ES-SCLC + topotecan, 280 mg/m2, Cycle 1 Day 4 (n = 7), read-out: AUCtau (AUC0-inf, footnote a)): 4520 ng·h/mL
Vd [1, 6]: 1530 L
Tmax [1, 6]: 25.2 to 33 min
clearance [1, 7]: 2750 mL/min
half-life [1, 7]: 415 min
Vd [1, 7]: 1650 L
Tmax [1, 7]: 25.2 to 40.2 min
clearance [1, 8]: 2420 mL/min
Cmax ([1]; human, plasma, ES-SCLC + topotecan, 240 mg/m2, Cycle 1 Day 1 (n = 14), read-out: Cmax): 1270 ng/mL
Vd [1, 8]: 1430 L
Tmax [1, 9]: 22.8 to 90 min
half-life ([1]; human, plasma, ES-SCLC + topotecan, 200 mg/m2, Cycle 1 Day 4 (n = 9)): 514 min
clearance [1, 9]: 2470 mL/min
Cmax ([1]; human, plasma, ES-SCLC + topotecan, 240 mg/m2, Cycle 1 Day 4 (n = 15), read-out: Cmax): 1220 ng/mL
half-life ([1]; human, plasma, ES-SCLC + topotecan, 280 mg/m2, Cycle 1 Day 4 (n = 7)): 512 min
Cmax ([1]; human, plasma, ES-SCLC + topotecan, 280 mg/m2, Cycle 1 Day 4 (n = 7), read-out: Cmax): 2220 ng/mL
patients reporting DLTs ([2]; G1T28-03 Part 1, 200 mg/m2 + topotecan 0.75 mg/m2): 2 of 4
DSN in Cycle 1, mean (SD) [2, 10]: 0 (0.0) days
MAHE, event rate [2, 10]: 0.102 per week
Mean ANC Nadir in Cycle 1 [2, 10]: 0.98 (0.330) ×109/L
Occurrence of ESA administrations [2, 10]: 0 n (%)
Occurrence of FN [2, 10]: 0 n (%)
Occurrence of G-CSF administration [2, 10]: 1 (25.0) n (%)
Occurrence of Grade 3 or 4 decreased hemoglobin laboratory values [2, 10]: 2 (50.0) n (%)
Occurrence of Grade 3 or 4 decreased platelet count values [2, 10]: 2 (50.0) n (%)
Occurrence of Grade 3 or 4 hematologic laboratory abnormalities [2, 10]: 4 (100.0) n (%)
Occurrence of IV antibiotic use [2, 10]: 1 (25.0) n (%)
Occurrence of RBC transfusions on/after Week 5 [2, 10]: 2 (50.0) n (%)
Occurrence of SN [2, 10]: 1 (25.0) n (%)
Occurrence of infection SAEs [2, 10]: 1 (25.0) n (%)
Occurrence of platelet transfusions [2, 10]: 0 n (%)
Occurrence of pulmonary infection SAEs [2, 10]: 1 (25.0) n (%)
DSN in Cycle 1, mean (SD) [2, 11]: 8 (6.8) days
MAHE, event rate [2, 11]: 0.156 per week
Mean ANC Nadir in Cycle 1 [2, 11]: 0.47 (0.551) ×109/L
Occurrence of ESA administrations [2, 11]: 1 (33.3) n (%)
Occurrence of FN [2, 11]: 0 n (%)
Occurrence of G-CSF administration [2, 11]: 2 (66.7) n (%)
Occurrence of Grade 3 or 4 decreased hemoglobin laboratory values [2, 11]: 1 (33.3) n (%)
Occurrence of Grade 3 or 4 decreased platelet count values [2, 11]: 1 (33.3) n (%)
Occurrence of Grade 3 or 4 hematologic laboratory abnormalities [2, 11]: 3 (100.0) n (%)
Occurrence of IV antibiotic use [2, 11]: 1 (33.3) n (%)
Occurrence of RBC transfusions on/after Week 5 [2, 11]: 1 (33.3) n (%)
Occurrence of SN [2, 11]: 2 (66.7) n (%)
Occurrence of infection SAEs [2, 11]: 1 (33.3) n (%)
Occurrence of platelet transfusions [2, 11]: 1 (33.3) n (%)
Occurrence of pulmonary infection SAEs [2, 11]: 1 (33.3) n (%)
DSN in Cycle 1, mean (SD) [2, 12]: 14 (1.4) days
MAHE, event rate [2, 12]: 0.403 per week
Mean ANC Nadir in Cycle 1 [2, 12]: 0.20 (0.000) ×109/L
Occurrence of ESA administrations [2, 12]: 2 (100) n (%)
Occurrence of FN [2, 12]: 0 n (%)
